Measured values as given in patent US4219657A, “Dibenzothiophenes” (Hoffmann-La Roche Inc., priority 1977, dated 1980).

Tests used:
[1] = system: Albino rats of Hart Strain; experiment: anti-inflammatory activity, volume of edema after Mycobacterium butyricum adjuvant injected into the right hind foot; format: in vivo; conditions: Rattus norvegicus, po, dosage of 0.03 gm. p.o., treated daily for 5 consecutive days, edema 96 hours after adjuvant, read-out: ED30 (dose required to produce a 30% reduction in edema)
Experimental: The test animals are given 10 mls. of vehicle^1, which contains the test compound per kg. of body weight. The animals are treated daily for 5 consecutive days. Three hours after the first treatment, 0.05 ml. of an 0.5% suspension of heat killed dessiccated Mycobacterium butyricum in U.S.P. olive oil, which has been steam sterilized for 30 minutes, is injected into the right hind foot of each rat. The paw volume is measured immediately after the injection of the adjuvant and again 96 hours later. The difference is recorded as volume of edema. The paw volume is measured by immersion of the paw into a column of mercury to an ink mark exactly at the level of the lateral malleolus. Percent inhibition is calculated by dividing the average control edema minus the average treatment edema by the average control edema times 100. The percent inhibition is plotted against dose on semi-logarithmic probability paper and the dose required to produce a 30% reduction in edema is estimated therefrom and is expressed as ED30.
^1 Hilgar, A. G. and Hummel, D. J.: Endocrine Bioassay Data. No. 1, p. 15, August 1964 (Cancer Chemotherapy National Service Center, N.I.H.)

[2] = system: mice; experiment: analgesic activity, reaction time of mice on a hot plate; format: in vivo; conditions: Mus musculus; male mice; oral; hot plate 55±0.5° C.; combined reaction time average at 30, 60 and 90 minutes
Experimental: The method determines the reaction time of mice dropped onto a hot plate maintained at 55±0.5° C. Six groups of male mice (5 mice/group) weighing between 20-30 grams are utilized. The initial reaction time of these mice is determined once, and the reaction time of each group is then averaged. The mice are then administered the vehicle and/or the compound to be tested by the oral, intraperitoneal or subcutaneous route. The average reaction time of each group is determined again at 30, 60 and 90 minutes after compound administration and is compared to controls. Reaction time is recorded as percent changes from control. All groups are averaged before and after treatment. A combined reaction time average (recorded as percent change of reaction time threshhold from controls) for all three periods is plotted against does on graph paper, and a curve is drawn. The ED50 is read from this curve.

O=C(O)Cc1ccc2c(c1)sc1ccc(Cl)cc12 [8-chloro-dibenzothiophene-3-acetic acid]
ED30 [1]: 1.8 mg/kg/day
ED50 [2]: 120 mg/kg
